Assay results as given in patent US20070249844A1, “Pyrazole derivatives and process for the production thereof” (Ihara Chemical Industry Co., Ltd., priority 2002, published 2007).

Structure (SMILES) | melting point [°C]
CCn1nc(C(F)(F)F)c(C)c1O | 150 to 152
CCCn1nc(C(F)(F)F)c(C)c1O | 133 to 134
Br.CCn1nc(C(F)(F)F)c(CSC(=N)N)c1OC(F)F | 139 to 141
Cn1nc(C(F)(F)F)c(CSC2=NOC(C)(C)C2)c1OC(F)F | 39 to 40
Cn1nc(C(F)(F)F)c(CS(=O)(=O)C2=NOCC2)c1OC(F)F | 115 to 117
Cn1nc(C(F)(F)F)c(CS(=O)(=O)C2=NOC3CCCCC23)c1OC(F)F (stereo not drawn) | 97 to 98
CC1CC(S(=O)(=O)Cc2c(C(F)(F)F)nn(C)c2OC(F)F)=NO1 (stereo not drawn) | 106 to 107
CC(C)C1CC(S(=O)(=O)Cc2c(C(F)(F)F)nn(C)c2OC(F)F)=NO1 (stereo not drawn) | 85 to 86

Other lines, results leading:

melting point [°C] | Structure (SMILES)
93 to 95 | Cn1nc(C(F)(F)F)c(CS(=O)(=O)C2=NOC(C)(C)C2)c1OCC(F)(F)F
89 to 91 | Cn1nc(C(F)(F)F)c(CS(=O)(=O)C2=NOC(C)(C)C2)c1OCC(F)F
88 to 89 | CC(C)n1nc(C(F)(F)F)c(CS(=O)(=O)C2=NOC(C)(C)C2)c1OCC(F)F
109 to 110 | CC(C)n1nc(C(F)(F)F)c(CS(=O)(=O)C2=NOC(C)(C)C2)c1OCC(F)(F)F
49 to 51 | CCCn1nc(C(F)(F)F)c(CS(=O)(=O)C2=NOC(C)(C)C2)c1OCC(F)(F)F
84 to 86 | CCn1nc(C(F)(F)F)c(CS(=O)(=O)C2=NOC(C)(C)C2)c1OCC(F)(F)F
91 to 92 | CC1(C)CC(S(=O)(=O)Cc2c(C(F)(F)F)nn(C(C)(C)C)c2OCC(F)(F)F)=NO1
98 to 100 | CCn1nc(C(F)(F)F)c(CS(=O)(=O)C2=NOC(C)(C)C2)c1OC(F)F
77 to 78 | CCC1(C)CC(S(=O)(=O)Cc2c(C(F)(F)F)nn(C)c2OC(F)F)=NO1 (stereo not drawn)
96 to 98 | Cn1nc(C(F)(F)F)c(CS(=O)(=O)C2=NOC(C)(C3CC3)C2)c1OC(F)F (stereo not drawn)
